The text below walks through data of ChEMBL document CHEMBL1649194, “Pharmacokinetics of intracameral voriconazole injection” (Antimicrob Agents Chemother, 2009).

A short description of data set [1]: Half life in New Zealand White rabbit eye administered as intracameral injection. The format is ADME, tissue-based, Oryctolagus cuniculus. The settings on record: topical or ocular.
Data set [2] in a line: Half life in human eye administered as intracameral injection. The format is ADME, tissue-based.
Data set [3] is described as follows: Drug level in New Zealand White rabbit eye aqueous humor at 25 ug/25 ul administered as intracameral injection measured after 15 mins. The format is ADME, tissue-based, Oryctolagus cuniculus. The settings on record: topical or ocular, read-out: Drug uptake.
A short description of data set [4]: Drug level in New Zealand White rabbit eye aqueous humor at 25 ug/25 ul administered as intracameral injection measured after 60 mins. It counts as ADME, tissue-based, Oryctolagus cuniculus. As to conditions: topical or ocular, read-out: Drug uptake.
The nature of data set [5]: Drug level in New Zealand White rabbit eye aqueous humor at 25 ug/25 ul administered as intracameral injection measured after 180 mins. As to conditions: topical or ocular, read-out: Drug uptake. It counts as ADME, tissue-based, Oryctolagus cuniculus.
A short description of data set [6]: Half life in rabbit serum. It counts as ADME, cell-free, Oryctolagus cuniculus.
The nature of data set [7]: Drug level in New Zealand White rabbit eye aqueous humor at 25 ug/25 ul administered as intracameral injection measured after 45 mins. The settings on record: topical or ocular, read-out: Drug uptake. The format is ADME, tissue-based, Oryctolagus cuniculus.
The nature of data set [8]: Drug level in New Zealand White rabbit eye aqueous humor at 25 ug/25 ul administered as intracameral injection measured after 90 mins. The format is ADME, tissue-based, Oryctolagus cuniculus. As to conditions: topical or ocular, read-out: Drug uptake.
The nature of data set [9]: Drug level in New Zealand White rabbit eye aqueous humor at 25 ug/25 ul administered as intracameral injection measured after 30 mins. The format is ADME, tissue-based, Oryctolagus cuniculus. The settings on record: topical or ocular, read-out: Drug uptake.
A short description of data set [10]: Half life in New Zealand White rabbit eye aqueous humor at 25 ug/25 ul administered as intracameral injection. As to conditions: topical or ocular. It counts as ADME, tissue-based, Oryctolagus cuniculus, Aqueous humor of eyeball.
A short description of data set [11]: Half life in human serum. It counts as ADME, cell-free.
A short description of data set [12]: Drug level in New Zealand White rabbit eye aqueous humor at 25 ug/25 ul administered as intracameral injection measured after 120 mins. As to conditions: topical or ocular, read-out: Drug uptake. The format is ADME, tissue-based, Oryctolagus cuniculus.
Data set [13] can be described thus: Drug level in New Zealand White rabbit eye aqueous humor at 25 ug/25 ul administered as intracameral injection measured after 150 mins. As to conditions: topical or ocular, read-out: Drug uptake. The format is ADME, tissue-based, Oryctolagus cuniculus.

`NCC[C@H](O)C(=O)N[C@@H]1C[C@H](N)[C@@H](O[C@H]2O[C@H](CN)[C@@H](O)[C@H](O)[C@H]2O)[C@H](O)[C@H]1O[C@H]1O[C@H](CO)[C@@H](O)[C@H](N)[C@H]1O` [AMIKACIN] showed a half-life in data set [1] of 0.58 h.
As to GENTAMICIN, in [2] (topical_or_ocular), the t1/2 amounted to 0.85 h.
As to `C[C@@H](c1ncncc1F)[C@](O)(Cn1cncn1)c1ccc(F)cc1F` [VORICONAZOLE], the concentration at 0.25 h in [3] came out at 25400 ng/mL. Moreover, the concentration at 1 h in data set [4] worked out at 5100 ng/mL. In addition, the concentration at 3 h in [5] is 150 ng/mL. For the same compound, the half-life in [6] is 2.5 h; in [10] it was 0.367 h; in data set [11], 6.5 h; in data set [2] (eye, topical or ocular) it was 3.27 h. Further, the concentration at 0.75 h in data set [7] came to 7730 ng/mL. Further, in data set [8], the concentration at 1.5 h is 2670 ng/mL. Further, the concentration at 0.5 h in data set [9] amounted to 13500 ng/mL. The concentration at 2 h in data set [12] was 1400 ng/mL. Besides, in [13], the concentration at 2.5 h amounted to 390 ng/mL.

By half-life is commonly meant the time needed for the level to fall by half in the phase considered.
